From patent publication US9303019B2, “Amino-pyrroline derivatives, and use thereof in the prevention and/or treatment of metabolic syndrome” (UNIVERSITE DE STRASBOURG, priority 2012, dated 2016) come the findings set out here.

For experiment [1], the system named is different receptors, transporters and enzymes. Nature of the experiment: Specific binding assay on different receptors, transporters and enzymes. Particulars: assayed at 10^−7 M and 10^−5 M. On the procedure: Compound 1 was assayed at two concentrations 10^−7 (1.0E-07) M and […] (1.0E-05) on different receptors, transporters and enzymes using the techniques described in the literature and adapted for the laboratory.

Experiment [2] concerns SHHF rats. Nature of the experiment: Chronic treatment: plasma biochemical parameters in SHHF rats. It is filed as in vivo, rat. Particulars: 20 mg/kg/d, 12 weeks. The procedure:
(§1) Male SHHF rats (spontaneously hypertensive, heart failure) aged 12 weeks were used for this study (Charles River breeding centre, L'Arbresle, France).
(§2) Compound 1 was administered in the drinking water for 12 weeks at a dose of 20 mg/kg/d (n=17). Water consumption was regularly measured to adjust the concentration of compound 1. Non-treated control SHHF rats had access to normal water (n=10).
(§3) Body weight, water and food intake were measured every day. After a treatment time of 12 weeks, blood samples were taken. Three days later, arterial pressure and heart rate were recorded and a glucose tolerance test was performed.
After a treatment time of 12 weeks, blood samples were obtained from the caudal vein of anesthetized rats (2.5% isoflurane, Abbott, Rungis, France) after a fasting time of 18 h.
The blood were centrifuged for 15 minutes at 2000 g and the plasma was frozen to −80° C. until assays of glucose, total cholesterol, HDL and LDL cholesterol and fatty acids. These assays were performed at the following centre: Plateau Technique Biologique des Hôpitaux Universitaires de Strasbourg (Advia 2400, Bayer HealthCare).
Insulin, leptin, adiponectin and glucagon were assayed using ELISA kits (insulin: Mercodia, Uppsala, Sweden; leptin: Yanaihara Institute Inc., Shizuoka, Japan; adiponectin: B-Bridge International, Mountain View, USA; glucagon: Gentaur, Kampenhout, Belgium) following the supplier's recommendations.

For the next experiment, the target named is I1 receptor (Homo sapiens, UniProt Q9Y2I1). Nature of the experiment: Specific binding assay of the I1 receptor on human platelets with [125I]LNP 911. The procedure:
Binding assays were performed at 37° C. using [^125I]LNP 911 as radioligand following the general procedure described but adapted to washed whole platelets (Greney, H.; Urosevic, D.; Schann, S.; Dupuy, L.; Bruban, V.; Ehrhardt, J,-D.; Bousquet, P.; Dontenwill, M. [^125I]2-(2-Chloro-4-iodo-phenylamino)-5-methyl-pyrroline (LNP911), a High-Affinity Radioligand Selective for I1 Imidazoline Receptors. Mol. Pharmacol. 2002, 62, 181-191).
Incubation was initiated through the addition of 900 to 950 μl of platelet suspension at a concentration of 500000/μl in a final volume of 1 ml Tyrode albumin and was performed at 37° C. for 5 min (equilibrium conditions). The competitive assays were conducted using a single concentration of radioligand ([…], 200 000 cpm), in the presence of increasing concentrations of suitable non-labelled ligand. Non-specific binding was determined by the binding of [^125I]LNP 911 in the presence of 100 nM of non-labelled LNP 911 and represented about 10% of total radioactivity when […] of [^125I]LNP 911 were used.
The reaction was halted by rapid vacuum filtration through GF/C fibre glass filters followed by five rapid washings of the filters with 3 ml of ice-cold Tyrode ([…], pH 7.35). Radioactivity was measured using a gamma counter (Wallac 1410).
The competitive assays were analyzed by non-linear regression using the GraphPad programme.
Ki values were determined using the method described by Cheng and Prussof (Cheng, Y. C.; Prusoff, W. H. Relationship between the Inhibition Constant (Ki) and the Concentration of Inhibitor which causes 50 percent Inhibition (I50) of an Enzymatic Reaction. Biochem. Pharmacol. 1973, 22, 3099-3108).

For another experiment, the system named is 3T3-L1 adipocytes. The experiment is described as follows: Secretion of adiponectin by differentiated 3T3-L1 adipocytes (ELISA). Type of experiment: cell-based, murine. The settings on record: 3 μmol/l, 6 h; control 212.6±19.1. The procedure: 3T3-L1 murine preadipocytes were cultured to confluence at 37° C. in DMEM medium containing 4.5 g/litre of D-glucose, 10% FCS and antibiotics. At confluence, differentiation of the 3T3-L1 adipocytes was initiated through the addition over 48 h of a mixture containing 100 μM methyl-isobutylxanthine, 100 nm dexamethasone and 175 nM insulin. The cells were then passaged every 2-3 days in DMEM, 10% FCS and 175 nM insulin. More than 95% of cells had the phenotype of mature adipocytes 10 days after confluence was reached.
To determine the secretion of adiponectin by mature adipocytes, differentiated 3T3-L1 adipocytes (10 days after confluence) were placed in culture in 12-well plates and washed three times with DMEM, then cultured for 6 h in DMEM alone, in the absence or presence of 3 μM of compound 1. In some wells the antagonist selective for the imidazoline receptors I1, efaroxan, was added (100 μM) 30 min before exposure to compound 1.
The culture medium was then recovered, centrifuged for 3 min at 10 000 g to remove cell contaminants, and the supernatant was stored at −80° C. until use. After two washings in cold PBS, the adipocytes were collected in PBS, homogenized and stored at −80° C. An aliquot of adipocyte homogenate was stored for protein determination. The adiponectin was measured using an ELISA kit following the manufacturer's recommendations. The adiponectin concentration was normalized with the cell protein content.
Background: In an ELISA, binding on a coated surface is turned into a signal by an enzyme label.

For experiment [3], the system named is SHHF rats. The experiment is described as follows: Chronic treatment: body weight and food consumption in SHHF rats. It is filed as in vivo, rat. Particulars: 20 mg/kg/d. The procedure: as §1, §2, §3

I1 receptor, sequence (Q9Y2I1 2-1504 limits assumed): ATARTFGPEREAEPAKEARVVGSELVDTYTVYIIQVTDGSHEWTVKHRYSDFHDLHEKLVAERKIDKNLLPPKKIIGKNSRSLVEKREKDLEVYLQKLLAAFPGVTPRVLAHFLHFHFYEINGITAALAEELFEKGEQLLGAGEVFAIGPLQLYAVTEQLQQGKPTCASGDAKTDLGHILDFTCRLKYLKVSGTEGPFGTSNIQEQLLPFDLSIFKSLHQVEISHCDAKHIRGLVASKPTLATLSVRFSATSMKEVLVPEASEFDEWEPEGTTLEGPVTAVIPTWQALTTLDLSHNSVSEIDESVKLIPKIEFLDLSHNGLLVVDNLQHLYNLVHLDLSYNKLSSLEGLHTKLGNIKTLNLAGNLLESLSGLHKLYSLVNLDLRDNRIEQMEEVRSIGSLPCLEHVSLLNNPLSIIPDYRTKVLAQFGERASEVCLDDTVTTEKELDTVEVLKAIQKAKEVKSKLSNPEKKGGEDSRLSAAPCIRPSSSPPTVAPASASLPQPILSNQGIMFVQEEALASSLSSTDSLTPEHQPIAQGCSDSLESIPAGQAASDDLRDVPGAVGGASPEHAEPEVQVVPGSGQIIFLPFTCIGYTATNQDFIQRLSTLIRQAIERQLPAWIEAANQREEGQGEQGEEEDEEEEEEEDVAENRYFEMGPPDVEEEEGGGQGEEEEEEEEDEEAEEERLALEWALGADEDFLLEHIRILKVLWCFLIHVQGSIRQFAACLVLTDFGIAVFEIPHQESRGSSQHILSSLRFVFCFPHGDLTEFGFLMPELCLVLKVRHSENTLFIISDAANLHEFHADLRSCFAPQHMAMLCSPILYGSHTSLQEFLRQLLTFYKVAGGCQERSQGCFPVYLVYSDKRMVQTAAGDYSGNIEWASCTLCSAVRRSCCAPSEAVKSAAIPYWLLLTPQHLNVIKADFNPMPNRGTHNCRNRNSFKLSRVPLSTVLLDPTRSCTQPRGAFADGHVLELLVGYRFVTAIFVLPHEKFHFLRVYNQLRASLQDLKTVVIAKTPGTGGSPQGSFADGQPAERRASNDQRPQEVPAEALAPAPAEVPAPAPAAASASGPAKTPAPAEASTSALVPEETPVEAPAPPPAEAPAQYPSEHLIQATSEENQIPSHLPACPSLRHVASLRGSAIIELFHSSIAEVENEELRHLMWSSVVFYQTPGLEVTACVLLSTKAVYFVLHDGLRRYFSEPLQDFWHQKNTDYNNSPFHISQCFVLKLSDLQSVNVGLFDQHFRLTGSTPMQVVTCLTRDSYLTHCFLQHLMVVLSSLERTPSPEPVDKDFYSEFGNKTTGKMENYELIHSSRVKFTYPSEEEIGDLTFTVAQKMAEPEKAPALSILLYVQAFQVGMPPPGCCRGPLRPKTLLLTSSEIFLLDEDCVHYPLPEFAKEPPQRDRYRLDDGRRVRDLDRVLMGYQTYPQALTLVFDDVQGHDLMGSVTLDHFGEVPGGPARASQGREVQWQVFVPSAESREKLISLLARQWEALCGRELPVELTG

The Ki is the equilibrium dissociation constant of an inhibitor or competing ligand from its target. A low value points to higher affinity. In the case of `Cc1c(Cl)cccc1NC1=NCC(C)C1.Cl` (stereo not shown) [Compound 1, (3-Chloro-2-methyl-phenyl)-(4-methyl-4,5-dihydro-3H-pyrrol-2-yl)-amine hydrochloride], the “affinity for more than 50 receptors, transporters and enzymes” value in experiment [1] (hydrochloride) is on record as “does not exhibit any affinity similar to the affinity for the imidazoline receptor I1”. For the same molecule, the “affinity for more than 50 receptors, transporters and enzymes” value in experiment [1] (listed as compound 1, hydrochloride) was “does not bind to any of the assayed receptors, transporters and enzymes with affinity similar”. Moreover, in the experiment on SHHF rats [2], the fasting glycaemia entry is recorded as “not affected” and the free fatty acids result is “not affected”. The molecule also registered a total plasma cholesterol in the experiment on SHHF rats [2] (fasting 18 h, control 3.8±0.18) of 2.7 ± 0.09 mmol/L. In the experiment with SHHF rats [2] (fasting 18 h, control 4.59±0.23), this molecule came in with a plasma triglycerides of 3.8 ± 0.25 mmol/L. In addition, the plasma adiponectin with SHHF rats [2] (control 5.54±0.14) was found to be 10.6 ± 0.52 µg/mL. The fasting plasma insulin in the experiment with SHHF rats [2] (control 46.8±3.7) stood at 15.2 ± 2 ng/mL. Moreover, the HOMA-IR index in the experiment with SHHF rats [2] (control 534±38) was 110±14. Further, the Ki at I1 receptor was found to be 8.1 nM. For the same molecule, in the experiment with 3T3-L1 adipocytes, the secretion of adiponectin is 378±38 ng/ml/mg of proteins. Besides, the body weight result in the experiment with SHHF rats [3] (after 9 weeks until end of treatment) is “lower body weight than the controls”. Also, the food consumption entry with SHHF rats [3] (after one week's treatment) was “below that of the controls”.
